These are literature values, as cited in patent US20240041762A1 (Zambon S.p.A., priority 2020, published 2024).

For one data set, the system named is invasive aspergillosis. Conditions: in vivo.

Regarding `OC(Cn1cncn1)(Cn1cncn1)c1ccc(F)cc1F` [Fluconazole], the “activity against invasive aspergillosis” value with invasive aspergillosis is “not active”.

Take `CCC(C)n1ncn(-c2ccc(N3CCN(c4ccc(OCC5COC(Cn6cncn6)(c6ccc(Cl)cc6Cl)O5)cc4)CC3)cc2)c1=O` (stereo not shown) [itraconazole]: under “healthy volunteers”, the “ELF exposure as fraction of the plasma concentration” value is recorded as “approximately ⅓” and the “concentration in the alveolar cells with respect to the plasma concentration” value was “more than double”. Also, where the note is “other cases”, the “concentrations in bronchoalveolar lavage fluid and lung tissue, times lower than plasma” value is 10 times.
